How the values were obtained:
GR fusion proteins = conditions: cited from earlier work
[1] = test system: S. cerevisiae strain FY250
From the text: The plasmids encoding the LexA- and B42-fusion proteins were introduced in all necessary combinations into S. cerevisiae strain FY250 containing a plasmid encoding the lacZ reporter plasmid.
All of these experiments have been done as plate assays. The toxicity of the ligand and receptor is judged simply by seeing if either induction of the receptor fusions or application of the ligand to the plate impairs cell growth.

C[C@@H]1C[C@H]2[C@@H]3CCC4=CC(=O)C=C[C@]4(C)[C@@]3(F)[C@@H](O)C[C@]2(C)[C@@]1(O)C(=O)CO [DEX, Dexamethasone]
cell permeability (GR fusion proteins): cell permeable
modification or breakdown in the cell (GR fusion proteins): not modified or broken down in the cell
toxicity (impaired cell growth) [1]: neither DEX nor GR are toxic

Reference: US20020168685A1, “Covalent chemical inducers of protein dimerization and their uses in high throughput binding screens” (priority 2001, published 2002)
